Test results taken from US20230391781A1, “MALT1 MODULATORS AND USES THEREOF” (Rheos Medicines, Inc., priority 2020, published 2023).
Structures can show the parent of a compound that is named as a salt.

Tests used:
full length MALT1 = full length MALT1 (Homo sapiens (Human), UniProt Q9UDY8); assay: MALT1 Biochemical Assay; details: 15 nM enzyme, 30 μM peptide substrate Ac-Leu-Arg-Ser-Arg-Rh110-dPro, 30 min pre-incubation, 60 min reaction; mean value if tested more than once
Description: Inhibitor potency was evaluated by measuring enzymatic activity of full length MALT1 at varying concentrations of compound. The enzymatic assay consists of a single substrate reaction that monitors the release of a fluorescent dye upon cleavage of the peptide substrate. […] The assay buffer consists of 50 mM Hepes, pH 7.5, 0.8 M sodium citrate, 1 mM DTT, 0.004% tween-20, and 0.005% bovine serum albumin (BSA). […] The reaction was quenched after 60 minutes with the addition of iodoacetate at a final concentration of 10 mM. Total fluorescence was measured using an Envision (PerkinElmer) with fluorescence excitation at 485 nm and emission at […].
For potency determination, 1 μL of serially diluted compound (in 100% DMSO) was pre-incubated with 40 μL of enzyme for 30 minutes. The reaction was initiated with the addition of 10 μL of peptide substrate. The relative fluorescence units were transformed to percent inhibition by using 0% and 100% inhibition controls as reference. […] IC50 values were calculated by fitting the concentration-response curves to a four-parameter logistic equation in GraphPad Prism.

[1] = tested on: IL-2 in Jurkat (ATCC, clone E6.1) cells stimulated with anti-CD3/28/2; assay: Jurkat IL-2 Assay; type: cell-based; details: Homo sapiens; IL-2 inhibition, Jurkat cells, 30 min compound then anti-CD3/28/2 stimulation for 24 hours; mean value if tested more than once; read-out: IC50
Description: Inhibition was determined in a cell-based assay using Jurkat (ATCC, clone E6.1), an immortalized T-cell line, exposed to a dose response of compound and assessed for viability, and Il-2 inhibition by ELISA. Cells were cultured in RPMI/10% FBS (Invitrogen 11875093, Atlanta Biologicals S12450H), maintained below 3E6/mL and only used in assays while below passage 25. Compounds were stamped by ECHO onto 384w plates (PerkinElmer Culturplate, 6007680). The cells were plated in fresh media on top of compound and incubated for 30 minutes before stimulation with soluble anti-CD3/28/2 (Stemcell, 10970) for 24 hours. Supernatant was collected and assessed for Il-2 (MSD, 384w, L21SA-1). To assess viability of cells treated with compound, cells were lysed with CTG reagent (Promega, G7570), and measured by luminometer. […] IC50s calculated using 4-parameter fit in GraphPad Prism.
In this table, “A” indicates IC50 of less than 0.1 μM; “B” indicates IC50 from 0.1 μM up to 1 μM; and “C” indicates IC50 of greater than 1 μM. “N/A” indicates not tested. For a compound that was tested in more than one experiment, the result shown represents the mean value.

Chain of full length MALT1 (Q9UDY8 whole entry): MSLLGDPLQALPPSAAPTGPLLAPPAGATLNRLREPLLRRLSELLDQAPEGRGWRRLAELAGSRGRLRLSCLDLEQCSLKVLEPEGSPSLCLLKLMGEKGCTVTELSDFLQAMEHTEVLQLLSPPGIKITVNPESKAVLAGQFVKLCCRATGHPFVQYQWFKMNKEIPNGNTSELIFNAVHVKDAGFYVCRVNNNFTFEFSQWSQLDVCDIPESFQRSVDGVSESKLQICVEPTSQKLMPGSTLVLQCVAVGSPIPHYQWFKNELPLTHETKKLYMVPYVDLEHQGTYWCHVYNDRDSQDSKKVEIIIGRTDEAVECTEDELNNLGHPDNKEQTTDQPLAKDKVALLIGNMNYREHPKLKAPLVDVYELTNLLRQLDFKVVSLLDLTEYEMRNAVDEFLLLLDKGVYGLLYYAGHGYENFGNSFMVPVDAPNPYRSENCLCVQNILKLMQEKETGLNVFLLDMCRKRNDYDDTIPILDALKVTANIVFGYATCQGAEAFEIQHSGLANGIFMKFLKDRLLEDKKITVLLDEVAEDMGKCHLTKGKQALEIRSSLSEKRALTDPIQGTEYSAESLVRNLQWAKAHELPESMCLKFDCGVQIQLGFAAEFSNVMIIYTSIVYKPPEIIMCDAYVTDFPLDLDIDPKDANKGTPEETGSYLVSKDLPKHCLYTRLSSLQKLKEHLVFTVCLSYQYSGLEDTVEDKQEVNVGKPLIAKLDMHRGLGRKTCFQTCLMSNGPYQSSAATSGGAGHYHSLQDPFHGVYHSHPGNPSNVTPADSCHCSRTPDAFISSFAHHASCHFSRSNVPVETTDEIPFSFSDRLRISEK

SMILES | IC50 (full length MALT1) | IC50 [1]
CO[C@@H](C)c1c(Nc2ccc([C@H](N(C)C(=O)C3CCCN(C(=O)C4CC4)C3)C(F)(F)F)cc2)cnc2nc(Cl)nn12 (stereo partly drawn) [Compound 4.2, N-[(1S)-1-[4-({2-chloro-7-[(1S)-1-methoxyethyl]-[1,2,4]triazolo[1,5-a]pyrimidin-6-yl}amino)phenyl]-2,2,2-trifluoroethyl]-1-cyclopropanecarbonyl-N-methylpiperidine-3-carboxamide] | 0.1 to 1 µM | 0.1 to 1 µM
CO[C@@H](C)c1c(Nc2ccc([C@H](N(C)C(=O)C3CCCN(C)C3)C(F)(F)F)cc2)cnc2nc(Cl)nn12 (stereo partly drawn) [Compound 5.2, N—((S)-1-(4-((2-chloro-7-((S)-1-methoxyethyl)-[1,2,4]triazolo[1,5-a]pyrimidin-6-yl)amino)phenyl)-2,2,2-trifluoroethyl)-N,1-dimethylpiperidine-3-carboxamide] | 0.1 to 1 µM | > 1 µM
CO[C@@H](C)c1c(Nc2ccc([C@H](N(C)C(=O)C3CCN(C)C3)C(F)(F)F)cc2)cnc2nc(Cl)nn12 (stereo partly drawn) [Compound 5.3, N-[(1S)-1-[4-({2-chloro-7-[(1S)-1-methoxyethyl]-[1,2,4]triazolo[1,5-a]pyrimidin-6-yl}amino)phenyl]-2,2,2-trifluoroethyl]-N,1-dimethylpyrrolidine-3-carboxamide hydrochloride] | 0.1 to 1 µM | > 1 µM
CO[C@@H](C)c1c(Nc2ccc([C@H](N(C)C(=O)[C@H]3C[C@H](C(=O)O)C3)C(F)(F)F)cc2)cnc2nc(Cl)nn12 [Compound 7.3, (1S,3r)-3-(((S)-1-(4-((2-chloro-7-((S)-1-methoxyethyl)-[1,2,4]triazolo[1,5-a]pyrimidin-6-yl)amino)phenyl)-2,2,2-trifluoroethyl)(methyl)carbamoyl)cyclobutane-1-carboxylic acid] | 0.1 to 1 µM | > 1 µM
CO[C@H](C)c1c(Nc2ccc([C@H](N(C)C(=O)C3CCS(=O)(=O)CC3)C(F)(F)F)cc2)cnc2nc(Cl)nn12 [Compound 10.1, N—((S)-1-(4-((2-chloro-7-((R)-1-methoxyethyl)-[1,2,4]triazolo[1,5-a]pyrimidin-6-yl)amino)phenyl)-2,2,2-trifluoroethyl)-N-methyltetrahydro-2H-thiopyran-4-carboxamide 1,1-dioxide] | 0.1 to 1 µM | 0.1 to 1 µM

Next, values leading:

IC50 (full length MALT1) | IC50 [1] | SMILES
< 0.1 µM | 0.1 to 1 µM | CNC(=O)N1CCC(C(=O)N(C)[C@@H](c2ccc(Nc3cnc4nc(Cl)nn4c3[C@H](C)OC)cc2)C(F)(F)F)C1 (stereo partly drawn) [Compound 3.9, N3-[(1S)-1-[4-({2-chloro-7-[(1S)-1-methoxyethyl]-[1,2,4]triazolo[1,5-a]pyrimidin-6-yl}amino)phenyl]-2,2,2-trifluoroethyl]-N1,N3-dimethylpyrrolidine-1,3-dicarboxamide]
< 0.1 µM | 0.1 to 1 µM | CO[C@@H](C)c1c(Nc2ccc([C@H](N(C)C(=O)C3CCC(CNC(C)=O)CC3)C(F)(F)F)cc2)cnc2nc(Cl)nn12 (stereo partly drawn) [Compound 3.11, N-[(1S)-1-[4-({2-chloro-7-[(1S)-1-methoxyethyl]-[1,2,4]triazolo[1,5-a]pyrimidin-6-yl}amino)phenyl]-2,2,2-trifluoroethyl]-4-(acetamidomethyl)-N-methylcyclohexane-1-carboxamide]
< 0.1 µM | 0.1 to 1 µM | COC(=O)NCC1CCC(C(=O)N(C)[C@@H](c2ccc(Nc3cnc4nc(Cl)nn4c3[C@H](C)OC)cc2)C(F)(F)F)CC1 (stereo partly drawn) [Compound 3.12, methyl N-[(4-{[(1S)-1-[4-({2-chloro-7-[(1S)-1-methoxyethyl]-[1,2,4]triazolo[1,5-a]pyrimidin-6-yl}amino)phenyl]-2,2,2-trifluoroethyl](methyl)carbamoyl}cyclohexyl)methyl]carbamate]
< 0.1 µM | 0.1 to 1 µM | CO[C@@H](C)c1c(Nc2ccc([C@H](N(C)C(=O)C3CCN(C(=O)C4CC4)C3)C(F)(F)F)cc2)cnc2nc(Cl)nn12 (stereo partly drawn) [Compound 4.3, N-[(1S)-1-[4-({2-chloro-7-[(1S)-1-methoxyethyl]-[1,2,4]triazolo[1,5-a]pyrimidin-6-yl}amino)phenyl]-2,2,2-trifluoroethyl]-1-cyclopropanecarbonyl-N-methylpyrrolidine-3-carboxamide]
< 0.1 µM | 0.1 to 1 µM | CO[C@@H](C)c1c(Nc2ccc([C@H](N(C)C(=O)[C@H]3CC[C@H](O)CC3)C(F)(F)F)cc2)cnc2nc(Cl)nn12 [Compound 6.1, (1r,4S)—N—((S)-1-(4-((2-chloro-7-((S)-1-methoxyethyl)-[1,2,4]triazolo[1,5-a]pyrimidin-6-yl)amino)phenyl)-2,2,2-trifluoroethyl)-4-hydroxy-N-methylcyclohexane-1-carboxamide]
< 0.1 µM | 0.1 to 1 µM | CC(C)c1c(Nc2ccc([C@H](N(C)C(=O)[C@H]3CC[C@H](C(=O)O)CC3)C(F)(F)F)cc2)cnc2nc(Cl)nn12 [Compound 7.2, (1S,4r)-4-(((S)-1-(4-((2-chloro-7-isopropyl-[1,2,4]triazolo[1,5-a]pyrimidin-6-yl)amino)phenyl)-2,2,2-trifluoroethyl)(methyl)carbamoyl)cyclohexane-1-carboxylic acid ammonia salt]
